Measured values as given in patent publication US4721787A, “Process for the preparation of benzo-(pyrano and thiopyrano)-pyridines” (Ciba-Geigy Corporation, priority 1985, dated 1988).

Test system: presynaptic dopamine receptor (dopamine autoreceptor)
Assay: rat gamma-butyrolactone (GBL) model, in-vivo presynaptic dopamine agonist (autoreceptor agonist) activity
Settings: i.p.
Procedure: Indicative of potential neuroleptic activity of the compounds of the invention, the in-vivo presynaptic dopamine agonist activity (also called dopamine autoreceptor agonist activity) is determined in the rat gamma-butyrolactone (GBL) model by a modification of the procedure described by Walters and Roth, Naunyn Schmiedeberg's Arch. Pharmacol. 296, 5 (1976). In this model, a presynaptic dopamine agonist inhibits the GBL-induced accumulation of the dopamine precursor DOPA after pretreatment with 3-hydroxybenzylhydrazine (NSD-1015), a DOPA decarboxylase inhibitor.
Test compounds are dissolved in 0.9% saline, with sodium metabisulfite to prevent oxidation, if required. […] Dihydroxyphenylalanine (DOPA) is analyzed by High Pressure Liquid Chromatography/Electrochemistry (HPLC/EC) techniques using a Bio-analytical Systems (BAS) Model LC-150 series Liquid Chromatograph. […] Compounds are detected with an electro-chemical detector having an oxidizing potential of 0.7 volts and sensitivity setting of 20 nAmps/V. Tissue concentrations and recoveries are calculated by using the internal standard dihydroxybenzylamine (DHBA). […] Data is statistically analysed by one-way Analysis of Variance with Duncan's Multiple Comparison Test. The activity of the test compounds is determined as the percent inhibition of DOPA accumulation at a given dose. […]

## CCCN1CCC[C@@H]2c3cc(O)ccc3OC[C@H]21.Cl (relative stereo) [trans-9-hydroxy-4-propyl-1,2,3,4a,5,10b-hexahydro-4H-[1]-benzopyrano[3,4-b]pyridine hydrochloride]
  ED50 in the GBL model (inhibition of DOPA accumulation by 50%): about 0.16 mg/kg
